Experimental findings from the NIST ThermoML archive (doi:10.1021/acs.jced.6b00794) are described below.

A short description of this data set: refractive index (Na D-line) (dimensionless). Particulars: 293.15 K; 101.33 kPa; Liquid; Standard Abbe refractometry.

Broadly, the refractive index is the speed of light in vacuum divided by its phase velocity in the sample.

± gives the expanded uncertainty stated by the source.

For the compound `CC(=O)O` [acetic acid], the refractive index is given as 1.3717 ± 0.0024.
Then `CCO` [ethanol], with 1.3616 ± 0.0024; and `C=COC(C)=O` [vinyl acetate], with 1.3926 ± 0.0024.
With `O` [water] the figure was 1.3328 ± 0.0024.
